# Measurements reported in paper PMC12632547 (bioRxiv, 2025).
# Key:
# [1] = molecular target: human GLP-1R (Homo sapiens, UniProt P43220); test: In vitro GLP-1 receptor potency, cAMP signaling; type: cell-based; details: In vitro receptor activity cAMP assay (EC50), CRE-Luc reporter, BHK cells expressing human GLP-1R; mean ± SD, three independent experiments
# [2] = Murine plasma pharmacokinetic; type: in vivo, male ICR mice
# [3] = molecular target: DPP-4 (Homo sapiens, UniProt P27487); test: In vitro protease stability: DPP-4 half-life assay; type: in vitro ADME; details: recombinant DPP-4 enzyme, pH 7.4
# [4] = male, ICR, mouse, plasma, iv, 1 mg kg-1
# human GLP-1R, sequence (P43220 24-463): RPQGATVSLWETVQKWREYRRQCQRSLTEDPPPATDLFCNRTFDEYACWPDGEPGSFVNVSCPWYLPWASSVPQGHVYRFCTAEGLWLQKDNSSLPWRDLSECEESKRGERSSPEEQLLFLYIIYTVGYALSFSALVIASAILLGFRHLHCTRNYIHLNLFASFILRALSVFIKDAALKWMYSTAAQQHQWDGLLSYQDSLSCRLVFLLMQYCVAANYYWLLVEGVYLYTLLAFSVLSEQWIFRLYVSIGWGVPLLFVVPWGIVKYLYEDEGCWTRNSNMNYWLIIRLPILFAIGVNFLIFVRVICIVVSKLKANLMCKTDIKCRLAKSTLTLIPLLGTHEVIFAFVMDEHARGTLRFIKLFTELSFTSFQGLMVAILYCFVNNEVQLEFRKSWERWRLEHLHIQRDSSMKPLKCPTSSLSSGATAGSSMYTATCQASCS
# DPP-4, sequence (P27487 whole entry): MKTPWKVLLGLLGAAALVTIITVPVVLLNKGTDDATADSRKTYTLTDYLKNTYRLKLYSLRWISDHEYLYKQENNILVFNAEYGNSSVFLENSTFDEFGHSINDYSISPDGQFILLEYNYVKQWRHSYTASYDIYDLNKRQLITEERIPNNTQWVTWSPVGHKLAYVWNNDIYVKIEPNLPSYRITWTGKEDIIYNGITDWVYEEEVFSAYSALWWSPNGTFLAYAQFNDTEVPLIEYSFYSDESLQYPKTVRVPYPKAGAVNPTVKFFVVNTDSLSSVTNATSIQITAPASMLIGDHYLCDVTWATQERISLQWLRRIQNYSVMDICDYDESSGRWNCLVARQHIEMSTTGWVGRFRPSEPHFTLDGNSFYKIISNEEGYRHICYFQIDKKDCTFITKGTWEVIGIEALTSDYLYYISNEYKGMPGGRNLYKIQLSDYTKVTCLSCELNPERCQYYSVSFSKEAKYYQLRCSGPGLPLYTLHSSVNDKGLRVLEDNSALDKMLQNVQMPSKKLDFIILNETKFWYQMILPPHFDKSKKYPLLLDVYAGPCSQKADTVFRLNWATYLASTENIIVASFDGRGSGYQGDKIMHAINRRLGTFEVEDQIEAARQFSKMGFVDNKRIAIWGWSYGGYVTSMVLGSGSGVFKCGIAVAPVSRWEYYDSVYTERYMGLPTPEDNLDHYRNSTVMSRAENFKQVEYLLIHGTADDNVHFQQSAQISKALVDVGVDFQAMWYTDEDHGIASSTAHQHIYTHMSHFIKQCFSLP
structure (smiles),measurement,setting,value
"CC[C@H](C)[C@H](NC(=O)[C@H](Cc1ccccc1)NC(=O)[C@H](CCC(=O)O)NC(=O)[C@H](CCCCN)NC(=O)[C@H](C)NC(=O)[C@H](C)NC(=O)[C@H](CCC(N)=O)NC(=O)CNC(=O)[C@H](CCC(=O)O)NC(=O)[C@H](CC(C)C)NC(=O)[C@H](Cc1ccc(O)cc1)NC(=O)[C@H](CO)NC(=O)[C@H](CO)NC(=O)[C@@H](NC(=O)[C@H](CC(=O)O)NC(=O)[C@H](CO)NC(=O)[C@@H](NC(=O)[C@H](Cc1ccccc1)NC(=O)[C@@H](NC(=O)CNC(=O)[C@H](CCC(=O)O)NC(=O)[C@H](C)NC(=O)N(N)Cc1c[nH]cn1)[C@@H](C)O)[C@@H](C)O)C(C)C)C(=O)N[C@@H](C)C(=O)N[C@@H](Cc1c[nH]c2ccccc12)C(=O)N[C@@H](CC(C)C)C(=O)N[C@H](C(=O)N[C@@H](CCCNC(=N)N)C(=O)NCC(=O)N[C@@H](CCCNC(=N)N)C(=O)NCC(=O)O)C(C)C [AzaH7, [azaHis^7/R^34]-GLP-1(7–37)]",EC50,[1],0.743 ± 0.164 nM
same,clearance,[2]; [4],~7 mL/min/kg
same,half-life,[2]; [4],1.67 ± 0.52 h
same,plasma half-life,"[2]; mice, single IV 1 mg kg^−1, plasma, hours converted to minutes",~1.67 h
same,half-life at 0.1 mmol/l,[3],> 24 h
